Experiment [1] deals with T1, human m2 muscarinic acetylcholine receptor expressed in CHO cells (Homo sapiens, UniProt P08172).
T1 construct: purchased Receptor Biology, Inc; host or cells: CHO cells
T1 sequence (P08172 1-466): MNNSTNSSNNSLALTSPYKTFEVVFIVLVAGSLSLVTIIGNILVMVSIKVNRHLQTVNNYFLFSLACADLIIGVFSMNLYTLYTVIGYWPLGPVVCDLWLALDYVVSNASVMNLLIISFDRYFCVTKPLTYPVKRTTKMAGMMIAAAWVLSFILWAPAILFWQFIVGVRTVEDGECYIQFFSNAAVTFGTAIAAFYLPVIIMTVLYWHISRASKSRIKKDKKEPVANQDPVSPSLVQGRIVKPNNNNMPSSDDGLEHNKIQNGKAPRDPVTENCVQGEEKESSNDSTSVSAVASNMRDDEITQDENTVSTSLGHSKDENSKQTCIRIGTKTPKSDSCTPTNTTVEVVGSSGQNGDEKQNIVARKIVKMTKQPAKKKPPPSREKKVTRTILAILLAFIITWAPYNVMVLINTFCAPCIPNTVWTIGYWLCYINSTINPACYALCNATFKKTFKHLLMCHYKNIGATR
Put plainly: Inhibition of [3H]-N-methylscopolamine binding to muscarinic m2 receptor. Conditions: 0.2 nM [3H]-N-methylscopolamine. The protocol:
(§1) These tests were performed according to a modification of the method of Hargreaves, et al. (Br. J. Pharmacol. 107: 494-501, 1992). Namely, muscarinic acetylcholine receptors of human m1, m2, m3, m4 and m5 expressed in CHO cells (Receptor Biology, Inc.) were incubated with 0.2 nM [^3H]-N-methylscopolamine (82Ci/mmol, New England Nuclear, Inc.) and a test compound to be tested in 0.5 ml of 50 mM Tris-HCl, 10 mM MgCl2, 1 mM EDTA solution (pH 7.4) for 120 minutes at room temperature (about 20-25° C.), followed by suction filtration over a glass filter (UniFilter plate-GF/C; Packard). Then the filter was washed four times with 1 ml of ice-cold Tris-HCl buffer and dried at 50° C. for an hour. After adding a scintillator (Microscinti 0; Packard), the radioactivity of [^3H]-N-methylscopolamine binding to the filter was counted with a microplate scintillation counter (TopCount™; Packard). Non-specific receptor binding of [^3H]-N-methylscopolamine was measured by adding 1 μM N-methylscopolamine.

For experiment [2], the target named is T2, M1 receptor (Rattus norvegicus, UniProt P08482).
T2 construct: from tissue; host or cells: whole animal, male SD rats (in vivo)
T2 sequence (P08482 1-460): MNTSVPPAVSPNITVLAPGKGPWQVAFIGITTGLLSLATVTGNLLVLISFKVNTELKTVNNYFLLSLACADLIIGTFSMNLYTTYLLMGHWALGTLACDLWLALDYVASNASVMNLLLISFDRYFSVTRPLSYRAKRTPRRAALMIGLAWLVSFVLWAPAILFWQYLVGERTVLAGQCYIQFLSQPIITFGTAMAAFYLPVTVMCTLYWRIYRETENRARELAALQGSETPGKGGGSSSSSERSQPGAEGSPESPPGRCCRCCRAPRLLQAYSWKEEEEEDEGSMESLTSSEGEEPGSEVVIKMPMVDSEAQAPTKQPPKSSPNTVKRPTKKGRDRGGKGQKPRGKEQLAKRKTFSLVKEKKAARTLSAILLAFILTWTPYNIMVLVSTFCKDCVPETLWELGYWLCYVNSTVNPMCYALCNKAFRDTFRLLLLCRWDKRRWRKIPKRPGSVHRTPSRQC
Put plainly: Antagonism to M1 receptor in vivo: McNeil-A-343-induced vasopressor reaction in cervical vertebrae-separated rats. The note with it: iv, McNeil-A-343 (0.3 mg/kg) 5 minutes after test compound. The protocol: Male SD strain rats (weighing 300-500 g) were anesthetized with intraperitoneal administration of pentobarbital (50 mg/kg). Each rat's airway was cannulated by laryngotomy. Also by femoral incision, femoral artery and vein were isolated each and cannulated, which were used as routes for heart rate counting and chemical administration, respectively. Using a pulmotor for small animals (Type 7025, Ugo Basile Co.), artificial respiration was conducted under the conditions of ventilation rate of 6 ml/kg per breath and respiration rate of 90 breaths/min. The heart rate and blood pressure variations were measured with a heart rate counter (AT-601 G, Nippon Koden Co.) and a tonometer (AP-641G, Nippon Koden Co.), via a pressure transducer (DX-312, Nippon Koden Co.). After the blood pressure was stabilized, the cervical vertebrae was separated with an injection needle pricked from the occipital region. […] Five (5) minutes thereafter, McNeil-A-343 (0.3 mg/kg) was intravenously administered, and whereby induced hypertension variation was recorded. In this experiment one-dose evaluation per one animal was conducted. The inhibitory effect (inhibition ratio) of the test compound on the McNeil-A-343-induced vasopressor reaction was determined by the following equation: […]

For experiment [3], the target named is T3, M2 receptor (Rattus norvegicus, UniProt P10980).
T3 construct: from tissue; host or cells: whole animal, male SD rats (in vivo)
T3 sequence (P10980 1-466): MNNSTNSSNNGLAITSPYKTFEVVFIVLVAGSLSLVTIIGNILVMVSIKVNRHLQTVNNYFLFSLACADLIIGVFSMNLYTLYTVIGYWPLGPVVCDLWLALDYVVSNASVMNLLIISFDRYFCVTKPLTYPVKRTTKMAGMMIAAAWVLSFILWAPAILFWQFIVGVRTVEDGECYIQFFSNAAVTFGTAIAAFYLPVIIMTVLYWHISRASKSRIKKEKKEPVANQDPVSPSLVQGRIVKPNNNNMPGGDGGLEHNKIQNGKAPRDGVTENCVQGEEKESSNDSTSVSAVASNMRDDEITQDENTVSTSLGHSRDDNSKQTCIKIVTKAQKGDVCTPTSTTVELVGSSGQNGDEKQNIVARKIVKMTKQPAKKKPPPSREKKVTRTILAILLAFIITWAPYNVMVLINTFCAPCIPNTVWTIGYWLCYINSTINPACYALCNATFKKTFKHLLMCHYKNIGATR
Put plainly: Antagonism to M2 receptor in vivo: acetylcholine-induced bradycardia reaction in rats. The note with it: iv, acetylcholine (10 μg/kg) 5 minutes after test compound. As for the experimental part:
Male SD strain rats (weighing 300-500 g) were anesthetized with urethane (1 g/kg) and α-chloralose (50 mg/kg) administered intraperitoneally. […] In this experiment, one-dosage evaluation was conducted per one animal of the tested rats.

For experiment [4], the target named is T4, human m3 muscarinic acetylcholine receptor expressed in CHO cells (Homo sapiens, UniProt P20309).
T4 construct: purchased Receptor Biology, Inc; host or cells: CHO cells
T4 sequence (P20309 whole entry): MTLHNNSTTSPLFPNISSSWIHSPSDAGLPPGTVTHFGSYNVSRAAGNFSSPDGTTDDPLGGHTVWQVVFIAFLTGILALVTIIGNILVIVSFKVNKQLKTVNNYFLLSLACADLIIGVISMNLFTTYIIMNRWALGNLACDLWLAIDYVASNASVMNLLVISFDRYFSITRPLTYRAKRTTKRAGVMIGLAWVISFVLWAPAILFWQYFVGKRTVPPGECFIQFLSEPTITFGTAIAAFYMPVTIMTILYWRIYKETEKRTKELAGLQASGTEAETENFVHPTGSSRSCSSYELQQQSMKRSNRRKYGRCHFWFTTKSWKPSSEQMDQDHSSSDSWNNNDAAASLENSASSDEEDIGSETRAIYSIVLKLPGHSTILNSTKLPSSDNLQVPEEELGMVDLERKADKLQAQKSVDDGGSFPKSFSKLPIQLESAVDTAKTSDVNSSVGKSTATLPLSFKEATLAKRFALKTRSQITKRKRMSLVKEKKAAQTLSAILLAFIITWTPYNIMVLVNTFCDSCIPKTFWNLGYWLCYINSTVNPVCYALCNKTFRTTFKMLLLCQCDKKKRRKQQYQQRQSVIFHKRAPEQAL
Put plainly: Inhibition of [3H]-N-methylscopolamine binding to muscarinic m3 receptor. The note with it: for Ki: human m3 in CHO cells, 0.2 nM [3H]-N-methylscopolamine; for Selectivity m1/m3: ratio of Ki m1 to Ki m3; for Selectivity m2/m3: ratio of Ki m2 to Ki m3; for Selectivity m4/m3: ratio of Ki m4 to Ki m3; for Selectivity m5/m3: ratio of Ki m5 to Ki m3. As for the experimental part:
as §1

Experimental findings from US7452908B2, “Amide derivatives” (Banyu Pharmaceutical Co., Ltd., priority 1999, dated 2008) are described below.

For `O=C(CCNC(=O)CNC(=O)CC(c1ccccc1)(c1ccccc1)c1ccccc1)NC[C@H]1CCCN(CC2CCCCC2)C1` [Example 12, N-{2-(3-{((3R)-1-cyclohexylmethyl-3-piperidyl)methyl}amino-3-oxopropyl)amino-2-oxoethyl}-3,3,3-triphenyloropanamide], the Ki in experiment [1] was 34 nM. Further, the ED50 in experiment [2] is over 3 mg/kg. The compound further returned an ED50 in experiment [3] of 1.55 mg/kg. Also, in experiment [4], the affinity corresponds to a Ki of 0.38 nM, the “Selectivity m1/m3” value was determined as 370 times, the “Selectivity m2/m3” value is 89 times and the “Selectivity m4/m3” value was 47 times. Moreover, the “Selectivity m5/m3” value in experiment [4] came out at 84 times.

Compound `CC[N+]1(CC)CCC[C@H](CNC(=O)[C@H]2CCCN2C(=O)[C@@H]2C[C@@H](O)CN2C(=O)CC(c2ccccc2)(c2ccccc2)c2ccccc2)C1.[Cl-]` [Example 133, (3R)-1,1-diethyl-3-({({(2R)-1-({(2S,4R)-4-hydroxy-1-(3,3,3-triphenylpropanoyl)-2-pyrrolidinyl}carbonyl)-2-pyrrolidinyl}carbonyl)amino}methyl)piperidinium chloride] registered a Ki in experiment [1] of 810 nM. This compound returned an ED50 in experiment [2] of over 0.3 mg/kg. For the same compound, it took a dose of 0.114 mg/kg to reach the 50% effect level in experiment [3] (ED50). Moreover, in experiment [4], the Ki was found to be 3.2 nM, the “Selectivity m1/m3” value is listed as over 780 times, the “Selectivity m2/m3” value was determined as 250 times and the “Selectivity m4/m3” value was 44 times. Moreover, the “Selectivity m5/m3” value in experiment [4] is 500 times.
